“And” between values parts separate entries of the source, which are not always exact repeats. Equal entries are not always repeated.
System: 616215-338-R-J1-PDC complex spheroid viability
Assay: Anticancer human tumor 616215-338-R-J1-PDC patient-derived colon adenocarcinoma cell line growth inhibition [POLQ]
Conditions: for viability, T/C: stronger effect = lower value; for IC50: curve of compound
Method: Multicellular complex tumor spheroid response to Polymerase (POL) inhibitors (novobiocin, ART-558, RP6685) in combination with a variety of drugs and investigational agents in selected tumor cell lines
The POL inhibitors (novobiocin, ART-558, and RP6685) were evaluated both individually and in combination with standard of care and investigational anticancer small molecules within a complex spheroid model of solid tumors. . Complex spheroids include a stromal component modeled by human endothelial cells (HUVEC) and fibroblasts modeled by human mesenchymal stem cells (MSCs). The concentration ranges selected for each drug and investigational agent were based upon clinically achievable concentrations if the clinical Cmax of the agent was known.
Compounds. The drugs and investigational agents: novobiocin (NSC847541), ART-558 (NSC835418), RP-6685 (NSC848927), peposertib (NSC802822), ceralasertib (NSC780249), elimusertib (NSC800525), camonsertib (NSC841442), AZD-1390 (NSC803789), olaparib (NSC753686), talazoparib (NSC767125), rucaparib (NSC756644), sotorasib (NSC818433), MRTX-1133 (NSC836407), SN-38 (NSC673596), topotecan (NSC609699), epotoside (NSC141540), doxorubicin (NSC123127), gemcitabine (NSC613327), 5-fluorouracil (NSC19893), paclitaxel (NSC125973), vemurafenib (NSC761431), MSA-2 (NSC828583), SN-011 (NSC837082), adavosertib (NSC754352), prexasertib (NSC758257), carboplatin (NSC241240) and oxaliplatin (NSC266046), were obtained from the National Cancer Institute (NCI) Developmental Therapeutics Program Chemical Repository (21). The FDA-approved anticancer drug set is available from the Developmental Therapeutics Program at https://dtp.cancer.gov/organization/dscb/obtaining/. […] The stock solutions were prepared in dimethyl sulfoxide (DMSO, Sigma-Aldrich, St. Louis, MO, cat. D2650), except for the platinum compounds which were prepared in saline (Quality Biological, Gaithersburg, MD, cat. 114-055-101), at 800-fold the tested concentration and stored at -70 degrees C prior to their use. All drugs and investigational agents were tested over a range starting from a high concentration at or near the clinical Cmax and decreasing in half-log increments. If the clinical Cmax for an agent had not been determined, the highest concentration tested was 10 microM, except for SN-38, which was tested at a high concentration of 1 microM.
Cell Culture. All cells were maintained in an incubator at 37 degrees C and 5% CO2 with 95% humidity. The PDC lines were cultured according to standard operating procedures established by the NCI PDMR (https://pdmr.cancer.gov). Table 3 of the manuscript, lists the cell lines along with the number of the three cell types plated to form the mct-spheroids and media for tumor cell growth. After thawing, all PDC lines, except 997537-175-T-J1-PDC and 415267-285-R-J2-PDC, were cultured in Matrigel-coated flasks prepared with a working solution of 1X Ham's F-12 nutrient mix, without supplementation (Thermo Fisher Scientific, cat. 11765054), 100 U/mL penicillin-streptomycin (Thermo Fisher Scientific, cat. 15140122), and 2.5% Matrigel (Corning Inc., Corning, NY, cat. 354248) for the first three passages. The two PDC lines 997537-175-T-J1-PDC and 415267-285-R-J2-PDC were cultured on uncoated flasks. The 857933-349-R-J2-PDC line was cultured in 6C/Colon 1B media containing advanced DMEM/F-12 (Thermo Fisher Scientific, cat. 12634028), 10 mM HEPES (Thermo Fisher Scientific, cat. 15630080), 1X GlutaMAX supplement (Thermo Fisher Scientific, cat. 35050061), 0.1 mg/mL primocin (InvivoGen, San Diego, CA, cat. ant-pm-2), 10% defined fetal bovine serum, heat inactivated (HyClone Laboratories Inc., Logan, UT, cat. SH30070.03HI), 50% L-WRN conditioned media (ATCC, cat. CRL-3276), 1.25 mM N-Acetyl-L-cysteine (Sigma-Aldrich, cat. A9165), 10 mM nicotinamide (Sigma-Aldrich, cat. N0636), 1X B-27 supplement (Thermo Fisher Scientific, cat. 17504044), 1X N-2 supplement (Thermo Fisher Scientific, cat. […]
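Also: spheroids exposed to compounds for one week before readout.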
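For viability, T/C in this document: percent viability relative to DMSO vehicle wells taken as 100%.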

`C#Cc1c(F)ccc2cc(O)cc(-c3ncc4c(N5CC6CCC(C5)N6)nc(OCC56CCCN5CC(F)C6)nc4c3F)c12` (stereo not given) was tested, and the viability, T/C (compound 0.0316 µM) was 101% (2×) and 104%, the viability, T/C (compound 0.1 µM) was 90.4% and 90.9% and 90.6% and the viability, T/C (compound 0.316 µM) was 104% and 103% and 97.6%. The viability, T/C (compound 1 µM) was 107% and 71.8% and 104%, the viability, T/C (compound 3.16 µM) was 109% and 54.8% and 93.5% and the viability, T/C (compound 10 µM) was 72.4% and 33.1% and 66.3%. For the same molecule, the IC50 was > 10 µM and 3.54 µM.
With `C=CC(=O)N1CCN(c2nc(=O)n(-c3c(C)ccnc3C(C)C)c3nc(-c4c(O)cccc4F)c(F)cc23)C(C)C1` (stereo not given) the viability, T/C (compound 0.0316 µM) was 104% and 100% and 91.5%, the viability, T/C (compound 0.1 µM) was 94.8% and 103% and 100% and the viability, T/C (compound 0.316 µM) was 97.3% and 99.3% and 98.2%. The viability, T/C (compound 1 µM) was 97.3% and 97.5% and 99.1%, the viability, T/C (compound 3.16 µM) was 103% and 90.9% and 104% and the viability, T/C (compound 10 µM) was 87.7% and 66.7% and 91.4%. For the same molecule, the IC50 was > 10 µM.
With `C=CCn1c(=O)c2cnc(Nc3ccc(N4CCN(C)CC4)cc3)nc2n1-c1cccc(C(C)(C)O)n1` the viability, T/C (compound 0.00316 µM) was 98.4% and 98.6% and 104%, the viability, T/C (compound 0.01 µM) was 101% and 96.2% and 96.8% and the viability, T/C (compound 0.0316 µM) was 105% and 102% and 99.9%. For the same molecule, the viability, T/C (compound 0.1 µM) was 93.8% and 88.6% and 96.6%, the viability, T/C (compound 0.316 µM) was 88.4% and 64% and 54.5% and the viability, T/C (compound 1 µM) was 60.4% and 31.4% and 34.6%. The IC50 was > 1 µM and 0.516 µM and 0.41 µM.
`CC(=O)O[C@H]1C(=O)[C@@]2(C)[C@H]([C@H](OC(=O)c3ccccc3)[C@]3(O)C[C@H](OC(=O)[C@H](O)[C@@H](NC(=O)c4ccccc4)c4ccccc4)C(C)=C1C3(C)C)[C@]1(OC(C)=O)CO[C@@H]1C[C@@H]2O` was tested, and the viability, T/C (compound 0.00949 µM) was 39.3% and 41.7% and 86.3%, the viability, T/C (compound 0.03 µM) was 23.3% and 27.1% and 44.5% and the viability, T/C (compound 0.0949 µM) was 23.8% and 24.4% and 38.2%. The viability, T/C (compound 0.3 µM) was 15.6% and 17.9% and 35.5%, the viability, T/C (compound 0.949 µM) was 18% and 18.2% and 36.7% and the viability, T/C (compound 3 µM) was 21.7% and 17.8% and 34.3%. The IC50 was < 0.00949 µM and 0.0258 µM.
For `CC(C)n1c(=O)n(C)c2cnc3cc(F)c(-c4ccc(OCCCN5CCCCC5)nc4)cc3c21`, the viability, T/C (compound 0.0316 µM) was 112% and 102% and 72.9%, the viability, T/C (compound 0.1 µM) was 97% and 109% and 75% and the viability, T/C (compound 0.316 µM) was 106% and 93% and 74.8%. The viability, T/C (compound 1 µM) was 107% and 94.6% and 79.2%, the viability, T/C (compound 3.16 µM) was 108% and 101% and 85.2% and the viability, T/C (compound 10 µM) was 101% and 96% and 72.1%. For the same molecule, the IC50 was > 10 µM.
`CC1COCCN1c1cc(-c2ccnn2C)c2ccnc(-c3ccn[nH]3)c2n1` (stereo not given) was tested, and the viability, T/C (compound 0.0316 µM) was 95.3% and 98.7% and 94%, the viability, T/C (compound 0.1 µM) was 102% and 90.3% and 66% and the viability, T/C (compound 0.316 µM) was 73.7% and 70.5% and 39.4%. The viability, T/C (compound 1 µM) was 60.4% and 47.1% and 31.4%, the viability, T/C (compound 3.16 µM) was 50% and 27.1% and 28.4% and the viability, T/C (compound 10 µM) was 44.6% and 40.1% and 21.7%.
In the case of `CC1COCCN1c1cc(C2(O)CC3CCC(C2)O3)c2cnn(-c3ccn[nH]3)c2n1` (stereo not given), the viability, T/C (compound 0.0316 µM) is reported as 99.2% and 95.5% and 88%, the viability, T/C (compound 0.1 µM) is reported as 91.8% and 93% and 73.8% and the viability, T/C (compound 0.316 µM) is reported as 73.3% and 70.1% and 46.3%. The viability, T/C (compound 1 µM) was 76.6% and 53.7% and 34.7%, the viability, T/C (compound 3.16 µM) was 54% and 46% and 21% and the viability, T/C (compound 10 µM) was 40.1% and 32.2% and 19.3%.
`CC1COCCN1c1cc(C2(S(C)(=N)=O)CC2)nc(-c2ccnc3[nH]ccc23)n1` (stereo not given) was tested, and the viability, T/C (compound 0.0316 µM) was 99.9% and 97.9% and 100%, the viability, T/C (compound 0.1 µM) was 107% and 90.8% and 112% and the viability, T/C (compound 0.316 µM) was 95.8% and 93.9% and 108%. For the same molecule, the viability, T/C (compound 1 µM) was 99.2% and 99.4% and 95.3%, the viability, T/C (compound 3.16 µM) was 99% and 74.6% and 107% and the viability, T/C (compound 10 µM) was 71.5% and 39.9% and 74.1%. The IC50 was > 10 µM and 7.18 µM.
For `CCCS(=O)(=O)Nc1ccc(F)c(C(=O)c2c[nH]c3ncc(-c4ccc(Cl)cc4)cc23)c1F`, the viability, T/C (compound 0.0316 µM) was 106% and 102% and 108%, the viability, T/C (compound 0.1 µM) was 97.4% and 107% (2×) and the viability, T/C (compound 0.316 µM) was 105% and 102% and 97.8%. For the same molecule, the viability, T/C (compound 1 µM) was 107% and 102% and 95.8%, the viability, T/C (compound 3.16 µM) was 101% (2×) and 91.2% and the viability, T/C (compound 10 µM) was 10.8% and 13.5% and 20.5%. For the same molecule, the IC50 was 6.07 µM and 6.2 µM and 6.12 µM.
`CC[C@@]1(O)C(=O)OCc2c1cc1n(c2=O)Cc2cc3c(CN(C)C)c(O)ccc3nc2-1` was tested, and the viability, T/C (compound 0.000316 µM) was 83.5% and 113% and 93.4%, the viability, T/C (compound 0.001 µM) was 99.2% and 100% and 96.4% and the viability, T/C (compound 0.00316 µM) was 99.6% and 109% and 96.2%. The viability, T/C (compound 0.01 µM) was 97.7% and 101% and 110%, the viability, T/C (compound 0.0316 µM) was 111% and 70.1% and 103% and the viability, T/C (compound 0.1 µM) was 82.6% and 39% and 93.5%. For the same molecule, the IC50 was > 0.1 µM and 0.0666 µM.
For `CCc1c2c(nc3ccc(O)cc13)-c1cc3c(c(=O)n1C2)COC(=O)[C@]3(O)CC`, the viability, T/C (compound 0.00316 µM) was 96.8% and 81.2% and 106%, the viability, T/C (compound 0.01 µM) was 92.7% and 44.1% and 89.9% and the viability, T/C (compound 0.0316 µM) was 66.5% and 33.8% and 61.6%. The viability, T/C (compound 0.1 µM) was 51.2% and 26.8% and 51.4%, the viability, T/C (compound 0.316 µM) was 29.8% and 16.6% and 34.1% and the viability, T/C (compound 1 µM) was 16.3% and 9.67% and 18%.
In the case of `CCc1cc2c(N3CCc4c(cc(Cn5ccnc5)cc4-c4cn(C)nc4C(F)(F)F)C3=O)cc(C)nc2c(OC)n1`, the viability, T/C (compound 0.0316 µM) is reported as 111% and 112% and 115%, the viability, T/C (compound 0.1 µM) is reported as 99.7% and 102% and 100% and the viability, T/C (compound 0.316 µM) is reported as 103% and 79.5% and 78.1%. The viability, T/C (compound 1 µM) was 98.2% and 62.6% and 69.1%, the viability, T/C (compound 3.16 µM) was 62.3% and 54.4% and 53.4% and the viability, T/C (compound 10 µM) was 51.3% and 41.3% and 39.7%. The IC50 was > 10 µM and 3.64 µM and 4.13 µM.
With `CCc1cc2c(N3CCc4c(cc(Cn5ccnc5)cc4-c4cn(C)nc4C(F)(F)F)C3=O)ccnc2c(OC)n1` the viability, T/C (compound 0.0316 µM) was 93.8% and 107% and 110%, the viability, T/C (compound 0.1 µM) was 106% and 93.5% and 101% and the viability, T/C (compound 0.316 µM) was 111% and 89.7% and 94.4%. The viability, T/C (compound 1 µM) was 107% and 75.4% and 60.1%, the viability, T/C (compound 3.16 µM) was 79.1% and 52.8% and 53.1% and the viability, T/C (compound 10 µM) was 49.8% and 47.7% and 43.4%. For the same molecule, the IC50 was > 10 µM and 6.52 µM and 2.81 µM.
With `CNCc1ccc(-c2[nH]c3cc(F)cc4c3c2CCNC4=O)cc1` the viability, T/C (compound 0.0316 µM) was 92.7% and 108% and 87.4%, the viability, T/C (compound 0.1 µM) was 99.1% and 101% and 106% and the viability, T/C (compound 0.316 µM) was 102% and 104% and 96.3%. For the same molecule, the viability, T/C (compound 1 µM) was 96.4% and 106% and 107%, the viability, T/C (compound 3.16 µM) was 103% and 107% and 96.9% and the viability, T/C (compound 10 µM) was 90.2% and 26.3% and 83.5%. The IC50 was > 10 µM and 7.08 µM.

— PubChem BioAssay AID1963843 (Molecular Pharmacology Branch, DTP, NCI, 2024)
